Measurements taken from patent US20020076412A1, “METHODS FOR MODULATING THE IMMUNE SYSTEM” (priority 1987, published 2002).
“And” between values parts separate entries of the source, which are not always exact repeats. Equal values may be shown once. “Also recorded” adds a separate entry of the source.

Key:
I-E = test: MHC I-E binding of substituted MBP 87-99 peptides; set-up: species or system rat; settings: for IC50: read-out: (M*C) IC50 I-E Binding
From the text: A set of substituted peptides based on the sequence VHFFKNIVTPRT (Seq. ID No. 39), which is identical in rats, mice and human myelin basic protein (MBP), and corresponds to the I-E restricted epitope MBP 87-99 in the rat was produced. The peptides are shown in Table 1 (Seq. ID Nos. 39 to 52 respectively) MHC binding was measure say described in Smilek et al, 1991, Gautam et al 1992a&b.

87-99 T-cell line [1] = test: Proliferation of encephalitogenic T-cell line raised against native peptide (87-99); assay type: cell-based, rat; settings: stimulation of T-cell line raised against native 87-99, grades negative to 4+
Protocol: As noted above, candidate peptide analogues are first tested for their property of causing or inhibiting proliferation of T-cell lines. In the proliferation assay, MBP reactive T-cell lines may be used as target cells. T-cell lines are established from lymph nodes taken from rats injected with MBP. Lymph node cells are isolated and cultured for 5 to 8 days with MBP and IL-2 as a source of T-cell growth factors. Viable cells are recovered and a second round of stimulation is performed with MBP and irradiated splenocytes as a source of growth factors. After 5 to 6 passages in this manner, the proliferative potential of the cell lines are determined. MBP-reactive lines are used in the proliferation assay. In this assay, T-cell lines are cultured for three days with various concentrations of peptide analogues and irradiated, autologous splenocytes. After three days, 0.5-1.0 μCi of [^3H]-thymidine is added for 12-16 hours. Cultures are harvested and incorporated counts determined. Mean CPM and standard error of the mean are calculated from triplicate cultures.
Development of MBP-specific T-cell lines in the rat: T-cell lines are selected from LN or SC (spinal cords) of rats immunized with guinea pig myelin basic protein or with MBP peptide (200 μg) in CFA. Supernatants from ConA-stimulated Lewis rat splenocytes are used as the source of IL-2 to expand Ag-stimulated T-cells.
(§1) Proliferation Assay: Proliferative responses were determined as described previously (Zamvil, et al., Nature 317:355, 1985). 1×10^4 T-cells were cultured with 5×10^5 X-irradiated (3,000 rad) PL/J splenic APC in 0.2 ml of culture media in 96 well flat-bottomed microtiter plates (Falcon, 3072). Peptides were added to culture giving the final concentrations indicated. At 48 hours incubation, each well was pulsed with 1 μCi ^3H-thymidine and harvested 16 hours later. The mean c.p.m. thymidine incorporation was calculated for triplicate cultures. Standard deviations from replicate cultures were within 10% mean value. Proliferation assays were performed in 96-well microtiter plates. Briefly, 2×10^4 T-cells and 10^6 irradiated thymocytes/well were incubated with stimulation medium only, Con A, or antigen. The cultures were harvested onto glass fiber filters and TdR uptake was assessed by liquid scintillation. Mean cpm were calculated from triplicate wells. In some experiments, competitor peptides, or anti I-A (OX-6) or anti-I-E antibodies (OX-17) were used to evaluate which MHC molecules were used to restrict the T-cell response, or to determine whether peptides could antagonize stimulation by the native peptide.

EAE (RAT) [2] = test: Ability of peptide mixed in CFA to cause EAE; assay type: in vivo; settings: rats with EAE / rats immunized with the peptide alone in CFA
Protocol: (§2) The peptides were tested for their ability to cause EAE when mixed in CFA. […] It was seen that Ala4, Ala6, Ala7, and Ala8 are poor binders to I-E, implying that these residues 4F,6N,7I, and 8V are critical in MHC binding. […] Despite their inability to bind well to I-E, peptides ala6 and ala8 block the development of EAE when mixed with native peptide in a 5:1 molar ratio with CFA (0/6 sick with native plus ala6, 2/6 with native plus ala8, compared to 11/12 with native peptide alone). These competitor peptides Ala6 and Ala8, though poor I-E binders can apparently compete with native peptide and antagonize the T-cell receptor.

EAE = test: Competition with Ala6 and Ala5 for prevention of EAE with MBP (Table 3); assay type: in vivo, mice
Protocol: Incidence of EAE was expressed as number of mice with clinical EAE/number of mice immunized. For the induction of EAE, MBP peptide was dissolved in phosphate buffered saline (PBS) and emulsified with complete Freund's adjuvant (CFA) in a 1:1 mixture of PBS and CFA. Mice were injected with 0.2 ml emulsion at the base of the tail. On the same day and 48 h later, pertussis toxin (List Chemicals, Campbell, Calif.) was injected intravenously. Mice were examined daily for signs of EAE. For prevention of EAE, animals were immunized with MBP (0.2 mg), or in a mixture with the competitor peptide (1 mg).

EAE (RAT) [3] = test: Prevention of EAE, competitor mixed with native peptide 5:1 in CFA; assay type: in vivo; settings: sick/total; competitor plus native peptide 5:1 molar ratio in CFA; native line = native peptide alone
Protocol: as §2

87-99 T-cell line [4] = test: Competition assay for T-cell proliferation with native peptide; assay type: cell-based, Lewis rat; settings: blocking of proliferation of 87-99 T-cell line when given with native peptide in vitro
Protocol: The second assay is a competition assay for T-cell proliferation. In this assay, antigen presenting spleen cells are first irradiated and then incubated with native MBP peptide for 2-4 hours. These cells are then washed and further cultured with T-cells reactive to MBP. Various concentrations of candidate peptide analogues are included in cultures for an additional 3 days. Following this incubation period, each culture is pulsed with 1 μCi of [^3H]-thymidine for an additional 12-18 hours. Cultures are then harvested on fiberglass filters and counted as above. Mean CPM and standard error of the mean are calculated from data determined in triplicate cultures. Peptide analogues which inhibit proliferation to approximately 25% at a concentration of 50 μM or greater are suitable for further screening.
as §1, §2

[5] = native MBP peptide 0.2 mg mixed with competitor peptide 1 mg
[6] = peptide alone 0.2 mg in CFA, number with clinical EAE/number immunized

| IC50 (I-E) | Structure (SMILES) | Prolif. (87-99 T-cell line [1]; no key printed) | EAE (RAT) (EAE (RAT) [2]) | further results |
| --- | --- | --- | --- | --- |
| 20 µM | CC[C@H](C)[C@H](NC(=O)[C@H](CC(N)=O)NC(=O)[C@H](CCCCN)NC(=O)[C@H](Cc1ccccc1)NC(=O)[C@H](Cc1ccccc1)NC(=O)[C@H](Cc1c[nH]cn1)NC(=O)[C@@H](N)C(C)C)C(=O)N[C@H](C(=O)N[C@H](C(=O)N1CCC[C@H]1C(=O)N[C@@H](C)C(=O)N[C@H](C(=O)N1CCC[C@H]1C(=O)O)[C@@H](C)O)[C@@H](C)O)C(C)C [Ala 11] | negative | 4/6 | – |
| – | CC[C@H](C)[C@H](NC(=O)[C@H](CC(N)=O)NC(=O)[C@H](CCCCN)NC(=O)[C@H](Cc1ccccc1)NC(=O)[C@H](Cc1ccccc1)NC(=O)[C@H](Cc1c[nH]cn1)NC(=O)[C@H](C)N)C(=O)N[C@H](C(=O)N[C@H](C(=O)N1CCC[C@H]1C(=O)N[C@@H](CCCNC(=N)N)C(=O)N[C@H](C(=O)N1CCC[C@H]1C(=O)O)[C@@H](C)O)[C@@H](C)O)C(C)C [Ala 1] | – | 6/6 | – |
| – | CC[C@H](C)[C@H](NC(=O)[C@H](CC(N)=O)NC(=O)[C@H](CCCCN)NC(=O)[C@H](Cc1ccccc1)NC(=O)[C@H](C)NC(=O)[C@H](Cc1c[nH]cn1)NC(=O)[C@@H](N)C(C)C)C(=O)N[C@H](C(=O)N[C@H](C(=O)N1CCC[C@H]1C(=O)N[C@@H](CCCNC(=N)N)C(=O)N[C@H](C(=O)N1CCC[C@H]1C(=O)O)[C@@H](C)O)[C@@H](C)O)C(C)C [Ala 3] | – | 6/6 | – |
| – | CC[C@H](C)[C@H](NC(=O)[C@H](CC(N)=O)NC(=O)[C@H](C)NC(=O)[C@H](Cc1ccccc1)NC(=O)[C@H](Cc1ccccc1)NC(=O)[C@H](Cc1c[nH]cn1)NC(=O)[C@@H](N)C(C)C)C(=O)N[C@H](C(=O)N[C@H](C(=O)N1CCC[C@H]1C(=O)N[C@@H](CCCNC(=N)N)C(=O)N[C@H](C(=O)N1CCC[C@H]1C(=O)O)[C@@H](C)O)[C@@H](C)O)C(C)C [Ala 5] | negative | 0/6 | Incidence of EAE (EAE; [5]): had a preventative effect on EAE; Incidence of EAE (EAE; native MBP peptide 0.2 mg mixed with competitor peptide 1 mg, listed as ala 5): 2/6; Incidence of EAE (EAE; [6]): 0/6; EAE (RAT) (EAE (RAT) [2]; listed as Ala5): incapable of causing EAE |
| – | CC[C@H](C)[C@H](NC(=O)[C@H](CC(N)=O)NC(=O)[C@H](CCCCN)NC(=O)[C@H](Cc1ccccc1)NC(=O)[C@H](Cc1ccccc1)NC(=O)[C@H](Cc1c[nH]cn1)NC(=O)[C@@H](N)C(C)C)C(=O)N[C@H](C(=O)N[C@@H](C)C(=O)N1CCC[C@H]1C(=O)N[C@@H](CCCNC(=N)N)C(=O)N[C@H](C(=O)N1CCC[C@H]1C(=O)O)[C@@H](C)O)C(C)C [Ala 9] | negative | 1/6 | Prolif. (87-99 T-cell line [1]; no key printed, listed as Ala9): weak stimulators; EAE (RAT) (EAE (RAT) [2]; listed as Ala9): 1/6 and nonencephalitogenic |
| > 200 µM | CC[C@H](C)[C@H](NC(=O)[C@H](CC(N)=O)NC(=O)[C@H](CCCCN)NC(=O)[C@H](C)NC(=O)[C@H](Cc1ccccc1)NC(=O)[C@H](Cc1c[nH]cn1)NC(=O)[C@@H](N)C(C)C)C(=O)N[C@H](C(=O)N[C@H](C(=O)N1CCC[C@H]1C(=O)N[C@@H](CCCNC(=N)N)C(=O)N[C@H](C(=O)N1CCC[C@H]1C(=O)O)[C@@H](C)O)[C@@H](C)O)C(C)C [Ala 4] | negative | 0/6 | binding to I-E / MHC (in words) (I-E): poor binders; Prolif. (87-99 T-cell line [1]; no key printed, listed as Ala4): does not stimulate; EAE (RAT) (EAE (RAT) [2]; listed as Ala4): incapable of causing EAE; also recorded: does not cause EAE |
| 10 µM | CC[C@H](C)[C@H](NC(=O)[C@H](CC(N)=O)NC(=O)[C@H](CCCCN)NC(=O)[C@H](Cc1ccccc1)NC(=O)[C@H](Cc1ccccc1)NC(=O)[C@H](Cc1c[nH]cn1)NC(=O)[C@@H](N)C(C)C)C(=O)N[C@H](C(=O)N[C@H](C(=O)N1CCC[C@H]1C(=O)N[C@@H](CCCNC(=N)N)C(=O)N[C@H](C(=O)N[C@@H](C)C(=O)O)[C@@H](C)O)[C@@H](C)O)C(C)C [Ala 13] | – | 3/6 | – |
| – | CC[C@H](C)[C@H](NC(=O)[C@H](CC(N)=O)NC(=O)[C@H](CCCCN)NC(=O)[C@H](Cc1ccccc1)NC(=O)[C@H](Cc1ccccc1)NC(=O)[C@H](Cc1c[nH]cn1)NC(=O)[C@@H](N)C(C)C)C(=O)N[C@H](C(=O)N[C@H](C(=O)N[C@@H](C)C(=O)N[C@@H](CCCNC(=N)N)C(=O)N[C@H](C(=O)N1CCC[C@H]1C(=O)O)[C@@H](C)O)[C@@H](C)O)C(C)C [Ala 10] | – | incapable of causing EAE and nonencephalitogenic and 0/6 | – |
| – | CC[C@H](C)[C@H](NC(=O)[C@H](CC(N)=O)NC(=O)[C@H](CCCCN)NC(=O)[C@H](Cc1ccccc1)NC(=O)[C@H](Cc1ccccc1)NC(=O)[C@H](C)NC(=O)[C@@H](N)C(C)C)C(=O)N[C@H](C(=O)N[C@H](C(=O)N1CCC[C@H]1C(=O)N[C@@H](CCCNC(=N)N)C(=O)N[C@H](C(=O)N1CCC[C@H]1C(=O)O)[C@@H](C)O)[C@@H](C)O)C(C)C [Ala 2] | – | 6/6 | – |
| > 200 µM | CC[C@H](C)[C@H](NC(=O)[C@H](C)NC(=O)[C@H](CCCCN)NC(=O)[C@H](Cc1ccccc1)NC(=O)[C@H](Cc1ccccc1)NC(=O)[C@H](Cc1c[nH]cn1)NC(=O)[C@@H](N)C(C)C)C(=O)N[C@H](C(=O)N[C@H](C(=O)N1CCC[C@H]1C(=O)N[C@@H](CCCNC(=N)N)C(=O)N[C@H](C(=O)N1CCC[C@H]1C(=O)O)[C@@H](C)O)[C@@H](C)O)C(C)C [Ala 6] | – | 0/21 | EAE (RAT) (EAE (RAT) [3]): 0/6; Incidence of EAE (EAE; [5]): completely prevented the clinical development of EAE; Incidence of EAE (EAE; native MBP peptide 0.2 mg mixed with competitor peptide 1 mg, listed as ala 6): 0/6; Incidence of EAE (EAE; [6]): 0/6; binding to I-E / MHC (in words) (I-E): poor binders; also recorded: poor MHC binder; Prolif. (87-99 T-cell line [1]; key not given): weakly stimulate; EAE (RAT) (EAE (RAT) [2]; listed as Ala6): incapable of causing EAE; Comp Assay Prolif (RAT) (87-99 T-cell line [4]): plus; Comp Assay Prolif (RAT) (87-99 T-cell line [4]; listed as Ala6): can block proliferation |
| – | CC[C@H](C)[C@H](NC(=O)[C@H](CC(N)=O)NC(=O)[C@H](CCCCN)NC(=O)[C@H](Cc1ccccc1)NC(=O)[C@H](Cc1ccccc1)NC(=O)[C@H](Cc1c[nH]cn1)NC(=O)[C@@H](N)C(C)C)C(=O)N[C@H](C(=O)N[C@H](C(=O)N1CCC[C@H]1C(=O)N[C@@H](CCCNC(=N)N)C(=O)N[C@@H](C)C(=O)N1CCC[C@H]1C(=O)O)[C@@H](C)O)C(C)C [Ala 12] | – | 6/6 | – |
